Data as given in patent EP0326331B1, “Substituted quinolines and cinnolines” (Dow AgroSciences LLC, priority 1988, dated 1989).
Like-named read-outs stand apart in the source and are kept apart here.

Legend:
Format in all cases: in vivo
[1] = test system: Twospotted spider mites (Tetranychus urticae Koch); assay: Mite/insect screen, SM; conditions: Tetranychus urticae, percent mortality, read-out: SM RESULTS %
Method in brief: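 Activity is expressed as percent mortality at the indicated spray concentrations. Plants are sprayed to runoff on upper and lower leaf surfaces with aqueous dilutions of an acetone/alcohol emulsifiable formulation, then dried for one hour.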

[2] = test system: Puccinia recondita tritici (leaf rust); assay: Test 1 greenhouse foliar spray screen, leaf rust on wheat; conditions: for LEAF RUST: disease control rating, foliar spray on wheat, 400 ppm (+++ at 100 ppm)
[3] = test system: Erysiphe graminis tritici (powdery mildew); assay: Test 1 greenhouse foliar spray screen, powdery mildew on wheat; conditions: for POWD MDEW: disease control rating, foliar spray on wheat, 400 ppm (+++ at 100 ppm)
[4] = test system: Septoria tritici (leaf blotch); assay: Test 1 greenhouse foliar spray screen, leaf blotch on wheat; conditions: disease control rating, foliar spray on wheat, 400 ppm (+++ at 100 ppm)
[5] = test system: Botrytis cinerea (gray mold); assay: Test 1 greenhouse foliar spray screen, gray mold on grape berries; conditions: for GRAY MOLD: disease control rating, spray on grape berries, 400 ppm (+++ at 100 ppm)
[6] = test system: Pyricularia oryzae (rice blast); assay: whole plant or invertebrate; conditions: for RICE BLAST: disease control rating, foliar spray on rice, 400 ppm (+++ at 100 ppm)
[7] = test system: southern armyworm (Spodopetra eridania Cramer); assay: Mite/insect screen, SAW; conditions: Spodoptera eridania, percent mortality, read-out: SAW RESULTS %
Method in brief: (§1)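 Compounds dissolved in 50:50 acetone/alcohol containing sulfonate/nonionic emulsifier blends, then diluted with water to the indicated concentrations. Leaves sprayed on both surfaces to runoff at 10 psi and dried one hour. Percent mortality scored after standard exposure periods.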

[8] = test system: Pseudoperonospora cubensis (downy mildew); assay: Test 1 greenhouse foliar spray screen, downy mildew on squash; conditions: for DOWN MDEW: disease control rating, foliar spray on squash, 400 ppm (+++ at 100 ppm)
corn rootworm = assay: Mite/insect screen, CRW; conditions: percent mortality, read-out: CRW RESULTS %
Method in brief: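 Compounds were dissolved in 50:50 acetone/alcohol containing sulfonate/nonionic emulsifier blends (23 g/L plus 13 g/L), then diluted with water to the test concentrations. Percent mortality was scored after standard exposure periods.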

[9] = test system: Venturia inaequalis (apple scab); assay: Test 1 greenhouse foliar spray screen, apple scab on apple seedling; conditions: disease control rating, foliar spray on apple seedling, 400 ppm (+++ at 100 ppm)
[10] = test system: melon aphids (Aphis gossypii Glover); assay: Mite/insect screen, MA; conditions: Aphis gossypii, percent mortality, read-out: MA RESULTS %
Method in brief: as §1

[11] = foliar, rate 200 ppm, foliar spray on squash
[12] = foliar, rate 400 ppm, foliar spray on squash

| Compound | mortality at 200 ppm ([1]; SAW, SM & MA RATE 200 PPM) [%] | LEAF RUST [2] | POWD MDEW [3] | LEAF BLOT [4] | GRAY MOLD [5] | RICE BLAST [6] | mortality at 200 ppm ([7]; SAW, SM & MA RATE 200 PPM) [%] | DOWN MDEW [8] | mortality at 12 ppm (corn rootworm; CRW RATE 12.00 PPM) [%] | APPL SCAB [9] | mortality at 200 ppm ([10]; SAW, SM & MA RATE 200 PPM) [%] | further results |
| --- | --- | --- | --- | --- | --- | --- | --- | --- | --- | --- | --- | --- |
| Cc1ccc(CCNc2ccnc3ccccc23)cc1 [Example 19, N-[2-(4-methylphenyl)ethyl]-4-quinolinamine] | 0 | ++ (90-100% control at 400 ppm) | + (20-89% control at 400 ppm) | - (0-19% control at 400 ppm) | - (0-19% control at 400 ppm) | ++ (90-100% control at 400 ppm) | 0 | +++ (90-100% control at 100 ppm) | 0 | - (0-19% control at 400 ppm) | 0 | – |
| Clc1ccc(CCNc2ccnc3ccccc23)cc1 [Example 20, N-[2-(4-chlorophenyl)ethyl]-4-quinolinamine] | 0 | + (20-89% control at 400 ppm) | + (20-89% control at 400 ppm) | - (0-19% control at 400 ppm) | - (0-19% control at 400 ppm) | + (20-89% control at 400 ppm) | 0 | +++ (90-100% control at 100 ppm) | 0 | - (0-19% control at 400 ppm) | 0 | – |
| CC(CNc1ccnc2ccccc12)c1ccccc1 (centres unmarked) [Example 21, N-(2-phenylpropyl)-4-quinolinamine] | 0 | + (20-89% control at 400 ppm) | + (20-89% control at 400 ppm) | - (0-19% control at 400 ppm) | - (0-19% control at 400 ppm) | + (20-89% control at 400 ppm) | 0 | ++ (90-100% control at 400 ppm) | 0 | - (0-19% control at 400 ppm) | 0 | – |
| COc1ccc(CCNc2ccnc3ccccc23)cc1 [Example 22, N-[2-(4-methoxyphenyl)-ethyl]-4-quinolinamine] | 0 | + (20-89% control at 400 ppm) | + (20-89% control at 400 ppm) | - (0-19% control at 400 ppm) | - (0-19% control at 400 ppm) | + (20-89% control at 400 ppm) | 0 | +++ (90-100% control at 100 ppm) | 0 | - (0-19% control at 400 ppm) | 0 | – |
| c1ccc(C(CNc2ccnc3ccccc23)c2ccccc2)cc1 [Example 23, N-(2,2-diphenylethyl)-4-quinolinamine] | 0 | + (20-89% control at 400 ppm) | + (20-89% control at 400 ppm) | - (0-19% control at 400 ppm) | - (0-19% control at 400 ppm) | + (20-89% control at 400 ppm) | 0 | +++ (90-100% control at 100 ppm) | 0 | - (0-19% control at 400 ppm) | 0 | – |
| Fc1cccc2c(OC3CCCCC3c3ccccc3)ccnc12 (centres unmarked) [Example 295, 8-fluoro-4-(2-phenylcyclohexyloxy)quinoline] | – | – | – | – | – | – | – | – | – | – | – | mortality at 200 ppm [1, 11]: 0%; mortality at 400 ppm [1, 12]: 0%; pest or weed control at 400 ppm ([2]; Puccinia recondita, foliar, Test 1, foliar spray on wheat, disease control rating at 400 ppm / 100 ppm): 20 to 89%; pest or weed control at 400 ppm ([3]; Blumeria graminis, foliar, Test 1, foliar spray on wheat, disease control rating at 400 ppm / 100 ppm, read-out: POWD MDEW): 20 to 89%; pest or weed control at 400 ppm ([5]; Botrytis cinerea, foliar, Test 1, spray on grape berries, disease control rating at 400 ppm / 100 ppm): 0 to 19%; pest or weed control at 400 ppm ([6]; Pyricularia oryzae, foliar, read-out: RICE BLAST, Test 1, foliar spray on rice, disease control rating at 400 ppm / 100 ppm): 20 to 89%; mortality at 200 ppm [7, 11]: 0%; mortality at 400 ppm [7, 12]: 0%; pest or weed control at 400 ppm ([8]; Pseudoperonospora cubensis, foliar, Test 1, foliar spray on squash, disease control rating at 400 ppm / 100 ppm, read-out: DOWN MDEW): 90 to 100%; mortality at 12 ppm (corn rootworm; CRW rate 12.00 ppm): 0%; mortality at 24 ppm (corn rootworm; CRW rate 24.00 ppm): 0%; mortality at 200 ppm [10, 11]: 0%; mortality at 400 ppm [10, 12]: 0% |
